The source of these data is PubChem BioAssay AID1963842 (Molecular Pharmacology Branch, DTP, NCI, 2024).

Where “and” joins values, the source holds several entries; their conditions need not be identical. Equal values may be shown once. Where only a bound is given, the exact number is not on record here.

Usually IC50 stands for the concentration that gives 50% inhibition. One may read the viability, T/C as the result in the treated group divided by that in the control group, in per cent.

This test concerns 677734-321-R-J1-PDC complex spheroid viability. Kind of test: Anticancer human tumor 677734-321-R-J1-PDC patient-derived soft tissue sarcoma cell line growth inhibition [POLQ]. Conditions: for viability, T/C: stronger effect = lower value. As for the experimental part: Multicellular complex tumor spheroid response to Polymerase (POL) inhibitors (novobiocin, ART-558, RP6685) in combination with a variety of drugs and investigational agents in selected tumor cell lines
The POL inhibitors (novobiocin, ART-558, and RP6685) were evaluated both individually and in combination with standard of care and investigational anticancer small molecules within a complex spheroid model of solid tumors. . Complex spheroids include a stromal component modeled by human endothelial cells (HUVEC) and fibroblasts modeled by human mesenchymal stem cells (MSCs). The concentration ranges selected for each drug and investigational agent were based upon clinically achievable concentrations if the clinical Cmax of the agent was known.
Compounds. The drugs and investigational agents: novobiocin (NSC847541), ART-558 (NSC835418), RP-6685 (NSC848927), peposertib (NSC802822), ceralasertib (NSC780249), elimusertib (NSC800525), camonsertib (NSC841442), AZD-1390 (NSC803789), olaparib (NSC753686), talazoparib (NSC767125), rucaparib (NSC756644), sotorasib (NSC818433), MRTX-1133 (NSC836407), SN-38 (NSC673596), topotecan (NSC609699), epotoside (NSC141540), doxorubicin (NSC123127), gemcitabine (NSC613327), 5-fluorouracil (NSC19893), paclitaxel (NSC125973), vemurafenib (NSC761431), MSA-2 (NSC828583), SN-011 (NSC837082), adavosertib (NSC754352), prexasertib (NSC758257), carboplatin (NSC241240) and oxaliplatin (NSC266046), were obtained from the National Cancer Institute (NCI) Developmental Therapeutics Program Chemical Repository (21). The FDA-approved anticancer drug set is available from the Developmental Therapeutics Program at https://dtp.cancer.gov/organization/dscb/obtaining/. […] The stock solutions were prepared in dimethyl sulfoxide (DMSO, Sigma-Aldrich, St. Louis, MO, cat. D2650), except for the platinum compounds which were prepared in saline (Quality Biological, Gaithersburg, MD, cat. 114-055-101), at 800-fold the tested concentration and stored at -70 degrees C prior to their use. All drugs and investigational agents were tested over a range starting from a high concentration at or near the clinical Cmax and decreasing in half-log increments. If the clinical Cmax for an agent had not been determined, the highest concentration tested was 10 microM, except for SN-38, which was tested at a high concentration of 1 microM.
Cell Culture. All cells were maintained in an incubator at 37 degrees C and 5% CO2 with 95% humidity. The PDC lines were cultured according to standard operating procedures established by the NCI PDMR (https://pdmr.cancer.gov). Table 3 of the manuscript, lists the cell lines along with the number of the three cell types plated to form the mct-spheroids and media for tumor cell growth. After thawing, all PDC lines, except 997537-175-T-J1-PDC and 415267-285-R-J2-PDC, were cultured in Matrigel-coated flasks prepared with a working solution of 1X Ham's F-12 nutrient mix, without supplementation (Thermo Fisher Scientific, cat. 11765054), 100 U/mL penicillin-streptomycin (Thermo Fisher Scientific, cat. 15140122), and 2.5% Matrigel (Corning Inc., Corning, NY, cat. 354248) for the first three passages. The two PDC lines 997537-175-T-J1-PDC and 415267-285-R-J2-PDC were cultured on uncoated flasks. The 857933-349-R-J2-PDC line was cultured in 6C/Colon 1B media containing advanced DMEM/F-12 (Thermo Fisher Scientific, cat. 12634028), 10 mM HEPES (Thermo Fisher Scientific, cat. 15630080), 1X GlutaMAX supplement (Thermo Fisher Scientific, cat. 35050061), 0.1 mg/mL primocin (InvivoGen, San Diego, CA, cat. ant-pm-2), 10% defined fetal bovine serum, heat inactivated (HyClone Laboratories Inc., Logan, UT, cat. SH30070.03HI), 50% L-WRN conditioned media (ATCC, cat. CRL-3276), 1.25 mM N-Acetyl-L-cysteine (Sigma-Aldrich, cat. A9165), 10 mM nicotinamide (Sigma-Aldrich, cat. N0636), 1X B-27 supplement (Thermo Fisher Scientific, cat. 17504044), 1X N-2 supplement (Thermo Fisher Scientific, cat. […]

[1] abbreviates: curve of first compound, second compound 0.0316 µM.
Setting [2] is: curve of first compound, second compound 0.1 µM.
[3] abbreviates: curve of first compound, second compound 0.316 µM.
Setting [4] is: curve of first compound, second compound 1 µM.
Where [5] appears, read: curve of first compound, second compound 3.16 µM.
[6] abbreviates: curve of first compound, second compound 10 µM.
Setting [7] is: second compound 0.0316 µM, first compound 0.0316 µM.
[8] abbreviates: second compound 0.0316 µM, first compound 0.1 µM.
Setting [9] is: second compound 0.0316 µM, first compound 0.316 µM.
Where [10] appears, read: second compound 0.0316 µM, first compound 1 µM.
Where [11] appears, read: second compound 0.1 µM, first compound 0.0316 µM.
[12] abbreviates: second compound 0.1 µM, first compound 0.1 µM.
[13] abbreviates: second compound 0.1 µM, first compound 0.316 µM.
The mark [14] stands for this setting: second compound 0.1 µM, first compound 1 µM.
[15] abbreviates: second compound 0.316 µM, first compound 0.0316 µM.
Where [16] appears, read: second compound 0.316 µM, first compound 0.1 µM.
The mark [17] stands for this setting: second compound 0.316 µM, first compound 0.316 µM.
Where [18] appears, read: second compound 0.316 µM, first compound 1 µM.
The mark [19] stands for this setting: second compound 1 µM, first compound 0.0316 µM.
Setting [20] is: second compound 1 µM, first compound 0.1 µM.
[21] abbreviates: second compound 1 µM, first compound 0.316 µM.
Where [22] appears, read: second compound 1 µM, first compound 1 µM.
[23] abbreviates: second compound 3.16 µM, first compound 0.0316 µM.
The mark [24] stands for this setting: second compound 3.16 µM, first compound 0.1 µM.
[25] abbreviates: second compound 3.16 µM, first compound 0.316 µM.
Setting [26] is: second compound 3.16 µM, first compound 1 µM.
[27] abbreviates: second compound 10 µM, first compound 0.0316 µM.
[28] abbreviates: second compound 10 µM, first compound 0.1 µM.
Where [29] appears, read: second compound 10 µM, first compound 0.316 µM.
[30] abbreviates: second compound 10 µM, first compound 1 µM.
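Also: spheroids exposed to compounds for one week.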

With `COc1cccc(OCCCN)c1-c1cc(Nc2cnc(C#N)cn2)n[nH]1` + COC1C(OC(N)=O)C(O)C(Oc2ccc3c(O)c(NC(=O)c4ccc(O)c(CC=C(C)C)c4)c(=O)oc3c2C)OC1(C)C, the IC50 came to 7.45 nM under setting [1]; 7.48 nM under setting [2]; 7.05 nM under setting [3]; 8.14 nM under setting [4]; 7.37 nM under setting [5]; 7.32 nM under setting [6]. Besides, the viability, T/C (second compound 0.0316 µM, first compound 0.00316 µM) was 97.1%; the viability, T/C (second compound 0.0316 µM, first compound 0.01 µM) is 33.8%; the viability, T/C under setting [7] is 12.8%; the viability, T/C under setting [8] was 9.46%; the viability, T/C under setting [9] is 8.59%; the viability, T/C under setting [10] is 8.45%. Besides, the viability, T/C runs as follows: (second compound 0.1 µM, first compound 0.00316 µM) 92.5%; (second compound 0.1 µM, first compound 0.01 µM) 35.6%; under setting [11], 11.9%; under setting [12], 8.91%; under setting [13], 9.88%; under setting [14], 7.56%. The viability, T/C runs as follows: (second compound 0.316 µM, first compound 0.00316 µM) 97.3%; (second compound 0.316 µM, first compound 0.01 µM) 29%; under setting [15], 14.7%; under setting [16], 9.01%; under setting [17], 10.5%; under setting [18], 7.41%. In addition, the viability, T/C (second compound 1 µM, first compound 0.00316 µM) is 102%; the viability, T/C (second compound 1 µM, first compound 0.01 µM) was 38.5%; the viability, T/C under setting [19] is 9.9%; the viability, T/C under setting [20] is 11.4%; the viability, T/C under setting [21] was 11.9%; the viability, T/C under setting [22] was 8.34%. Besides, the viability, T/C is 103% (second compound 3.16 µM, first compound 0.00316 µM); 30.6% (second compound 3.16 µM, first compound 0.01 µM); 11.9% under setting [23]; 9.84% under setting [24]; 12.3% under setting [25]; 9.73% under setting [26]. For the same molecule, the viability, T/C runs as follows: (second compound 10 µM, first compound 0.00316 µM) 88.4%; (second compound 10 µM, first compound 0.01 µM) 35.7%; under setting [27], 12.3%; under setting [28], 12%; under setting [29], 10.3%; under setting [30], 9.04%.
On to `COc1cc2cc(C(=O)CCC(=O)O)sc2cc1OC`, for which the viability, T/C is 100% and 108% and 101% (compound 0.0316 µM); 94.4% and 93.7% and 102% (compound 0.1 µM); 82% and 105% and 114% (compound 0.316 µM); 95.8% and 98.6% and 106% (compound 1 µM); 97.5% and 107% and 106% (compound 3.16 µM); 105% and 99.9% and 113% (compound 10 µM). Also, for the setting “curve of compound”, the IC50 was above 10000 nM.
For the molecule `C#Cc1c(F)ccc2cc(O)cc(-c3ncc4c(N5CC6CCC(C5)N6)nc(OCC56CCCN5CC(F)C6)nc4c3F)c12` (configuration not stated) + COC1C(OC(N)=O)C(O)C(Oc2ccc3c(O)c(NC(=O)c4ccc(O)c(CC=C(C)C)c4)c(=O)oc3c2C)OC1(C)C, the IC50 is, setting by setting: under setting [1], above 10000 nM; under setting [2], above 10000 nM; under setting [3], above 10000 nM; under setting [4], above 10000 nM; under setting [5], above 10000 nM; under setting [6], above 10000 nM. The viability, T/C was 108% under setting [7]; 92.2% under setting [8]; 104% under setting [9]; 104% under setting [10]; 111% (second compound 0.0316 µM, first compound 3.16 µM); 98% (second compound 0.0316 µM, first compound 10 µM). For the same molecule, the viability, T/C is 100% under setting [11]; 104% under setting [12]; 95.1% under setting [13]; 99.7% under setting [14]; 104% (second compound 0.1 µM, first compound 3.16 µM); 98.7% (second compound 0.1 µM, first compound 10 µM). The viability, T/C reads like this: under setting [15], 108%; under setting [16], 98.8%; under setting [17], 102%; under setting [18], 107%; (second compound 0.316 µM, first compound 3.16 µM) 107%; (second compound 0.316 µM, first compound 10 µM) 102%. Besides, the viability, T/C under setting [19] was 104%; the viability, T/C under setting [20] was 97.5%; the viability, T/C under setting [21] was 111%; the viability, T/C under setting [22] was 109%; the viability, T/C (second compound 1 µM, first compound 3.16 µM) is 103%; the viability, T/C (second compound 1 µM, first compound 10 µM) was 103%. For the same molecule, the viability, T/C is 103% under setting [23]; 95.5% under setting [24]; 101% under setting [25]; 105% under setting [26]; 103% (second compound 3.16 µM, first compound 3.16 µM); 102% (second compound 3.16 µM, first compound 10 µM). In addition, the viability, T/C is, setting by setting: under setting [27], 112%; under setting [28], 102%; under setting [29], 103%; under setting [30], 100%; (second compound 10 µM, first compound 3.16 µM) 98.7%; (second compound 10 µM, first compound 10 µM) 111%.
Turning to `C=CC(=O)N1CCN(c2nc(=O)n(-c3c(C)ccnc3C(C)C)c3nc(-c4c(O)cccc4F)c(F)cc23)C(C)C1` (configuration not stated), the viability, T/C is, setting by setting: (compound 0.0316 µM) 100% and 109% and 106%; (compound 0.1 µM) 95.8% and 94.2% and 95.4%; (compound 0.316 µM) 117% and 96.4% and 105%; (compound 1 µM) 101% and 104% and 95.6%; (compound 3.16 µM) 96.5% and 93.2% and 101%; (compound 10 µM) 89% and 64% and 94.1%. The IC50 (curve of compound) is above 10000 nM.
`CC[C@@]1(O)C(=O)OCc2c1cc1n(c2=O)Cc2cc3c(CN(C)C)c(O)ccc3nc2-1`: the viability, T/C by setting is: (compound 0.000316 µM) 104% (2×) and 105%; (compound 0.001 µM) 111% and 90.9% and 101%; (compound 0.00316 µM) 105% and 100% and 109%; (compound 0.01 µM) 98.2% and 82.6% and 99.5%; (compound 0.0316 µM) 46.4% and 25.9% and 36.8%; (compound 0.1 µM) 18% and 13.8% and 15%. Also, the IC50 (curve of compound) was 29.2 nM and 19.4 nM and 24.8 nM.
For the molecule `Cn1ncnc1[C@H]1c2n[nH]c(=O)c3cc(F)cc(c23)N[C@@H]1c1ccc(F)cc1`, the viability, T/C (compound 0.000316 µM) was 101% and 87.2% and 106%; the viability, T/C (compound 0.001 µM) was 104% and 93.2% and 95.4%; the viability, T/C (compound 0.00316 µM) is 97.4% and 107% and 117%; the viability, T/C (compound 0.01 µM) is 105% and 94.7% and 104%; the viability, T/C (compound 0.0316 µM) is 98.8% and 94.5% and 106%; the viability, T/C (compound 0.1 µM) is 93% and 75.8% and 93.5%. In addition, for the setting “curve of compound”, the IC50 was above 100 nM.
